The record followed here is publication PMC9599717, “The Multicellular Effects of VDAC1 N-Terminal-Derived Peptide” (Biomolecules, 2022).

What is called Kd is the constant that tells how readily two partners part at equilibrium.

In one assay the target is VDAC1. Nature of the assay: Microscale thermophoresis (MST) binding to fluorescently labeled purified VDAC1. The conditions noted are these: fluorescently labeled purified VDAC1 (138 nM); actin 10–500 nM, tubulin 20–2000 nM; 10 mM Tricine pH 7.4, 100 mM NaCl; read-out: Kd of interaction with VDAC1 (MST). How it is done:
Purified VDAC1 was fluorescently labeled using the NanoTemper Protein-Labeling Blue Kit. Fluorescently labeled VDAC1 was incubated with different concentrations of actin, tubulin, or peptides in 10 mM Tricine buffer (pH 7.4) containing 100 mM NaCl. After a 20-min incubation, 8–10 μL aliquots were loaded into microscale thermophoresis (MST) grade glass capillaries (NanoTemper Technologies, Munich, Germany), and thermophoresis was measured with the NanoTemper Monolith-NT115 system (20/40% light-emitting diode, 40% infrared laser power).
Figure 5 D-Δ(1-18)N-Ter-Antp altered actin filament organization (A,B) U-87MG cells were cultured and incubated for 24 h with D-Δ(1-18)N-Ter-Antp (10 µM). Cells were stained for actin using Phalloidin-488 and visualized by confocal microscopy (A) and quantified for Phalloidin-488 staining intensity (B). The results were from triplicates of different biological repeats and are presented as the means ± SEM. * p ≤ 0.05; ** p ≤ 0.01. (C) Maximum intensity projection of super-resolution (SIM) microscopy image. […] (D) Actin interaction with VDAC1 analyzed using the MST method. […] (E) In vitro G-actin polymerization was monitored, as described in the Method section. […]
Figure 6 D-Δ(1-18)N-Ter-Antp altered tubulin filament organization. […] Quantification of tubulin staining intensity (B). […] (D) Tubulin (20–2000 nM) interaction with VDAC1 analyzed using the MST method.
A general note: In MST a laser heats a spot of the sample, and binding alters the fluorescence response.

In assay [1] the test system is MEC-1 (human B-cell chronic lymphocytic leukemia). Nature of the assay: Cell death by PI staining and flow cytometry (FACS), MEC-1. The format is cell-based. The conditions noted are these: MEC-1 cells, 1.5 h. How it is done: MEC-1 cells were incubated in a serum-free medium with various concentrations of VDAC1-based peptides for 1.5 h at room temperature (RT), collected by centrifugation, washed with phosphate-buffered saline (PBS), and analyzed for cell death. Adherent cancer cells were seeded in culture plates and allowed to adhere overnight in a sterile cell culture incubation chamber maintained at 37 °C and 5% CO2. The next day, media was removed from the plates, and cells were treated with various concentrations of VDAC1-based peptides for the indicated time in serum-free Dulbecco’s Modified Eagle Medium (DMEM) with and without DMSO (final 0.15%) as a control for 6 h at 37 °C and 5% CO2. Cells were trypsinized, centrifuged (1500× g, 5 min), and washed with PBS.
Cell death was analyzed by the propidium iodide (PI) staining, followed by flow cytometry with the iCyt sy3200 Benchtop Cell Sorter/Analyzer and analysis with EC800 v 1.3.7 software (Sony Biotechnology Inc., San Jose, CA, USA). Apoptosis was analyzed by PI and annexin V-FITC staining, which was carried out according to the manufacturer’s instructions with minor modifications. […] Next, cells were washed and PI (6.25 μg/mL), was added immediately before flow cytometry At least 10,000 events were collected, recorded on a dot plot, and analyzed by flow cytometry. […]
For orientation: A flow cytometer gives signals particle by particle.

Regarding actin, on VDAC1, the Kd is 30 nM.

Turning to “11-GKSARDVFTKGYGFGL-26- RRMKWKK [Δ(1-10)N-Ter-min-Antp, VDAC1 N-terminal residues 11-26 fused to minimal Antp]”, the “Maximal cell death (at the concentration for maximal cell death)” value in assay [1] is 20%.
